# Values of other authors as cited in patent US8637296B2, “Lactobacillus helveticus strains for producing hypotensive peptides” (Nestec S.A., priority 2008, dated 2014).
# Target: angiotensin converting enzyme (ACE) (Homo sapiens, UniProt P12821)
# Sequence (P12821 30-1306, species assumed): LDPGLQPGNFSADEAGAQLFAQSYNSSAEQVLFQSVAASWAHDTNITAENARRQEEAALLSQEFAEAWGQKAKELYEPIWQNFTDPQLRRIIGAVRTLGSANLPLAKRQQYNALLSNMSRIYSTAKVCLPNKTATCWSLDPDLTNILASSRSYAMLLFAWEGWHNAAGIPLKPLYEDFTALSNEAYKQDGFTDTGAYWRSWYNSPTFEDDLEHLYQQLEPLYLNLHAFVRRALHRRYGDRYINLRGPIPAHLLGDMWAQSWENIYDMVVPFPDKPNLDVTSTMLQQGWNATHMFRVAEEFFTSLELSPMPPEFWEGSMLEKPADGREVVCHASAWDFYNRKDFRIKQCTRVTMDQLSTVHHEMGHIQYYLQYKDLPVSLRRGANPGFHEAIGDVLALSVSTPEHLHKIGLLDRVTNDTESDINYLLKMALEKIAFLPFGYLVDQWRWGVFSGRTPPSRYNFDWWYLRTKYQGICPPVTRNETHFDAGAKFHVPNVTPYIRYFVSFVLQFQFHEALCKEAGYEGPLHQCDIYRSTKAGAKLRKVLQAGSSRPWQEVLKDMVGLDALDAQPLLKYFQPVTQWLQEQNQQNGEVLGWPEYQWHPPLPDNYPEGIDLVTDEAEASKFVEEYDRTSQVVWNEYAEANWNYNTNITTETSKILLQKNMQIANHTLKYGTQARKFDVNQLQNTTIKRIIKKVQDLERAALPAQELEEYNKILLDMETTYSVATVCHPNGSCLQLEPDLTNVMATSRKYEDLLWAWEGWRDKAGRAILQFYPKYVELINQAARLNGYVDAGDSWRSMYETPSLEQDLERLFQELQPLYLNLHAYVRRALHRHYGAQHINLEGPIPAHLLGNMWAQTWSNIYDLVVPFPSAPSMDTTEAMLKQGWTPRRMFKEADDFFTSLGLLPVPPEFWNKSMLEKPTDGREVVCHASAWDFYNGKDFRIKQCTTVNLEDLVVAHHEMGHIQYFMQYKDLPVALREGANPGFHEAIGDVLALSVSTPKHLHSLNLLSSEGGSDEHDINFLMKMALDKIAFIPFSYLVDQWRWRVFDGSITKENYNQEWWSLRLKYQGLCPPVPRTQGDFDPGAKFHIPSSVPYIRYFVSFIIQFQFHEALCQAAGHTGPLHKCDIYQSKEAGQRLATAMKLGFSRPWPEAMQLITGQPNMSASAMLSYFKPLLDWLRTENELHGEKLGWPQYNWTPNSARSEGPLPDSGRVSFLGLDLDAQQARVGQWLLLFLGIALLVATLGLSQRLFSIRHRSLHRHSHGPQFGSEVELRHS
row,SMILES,inhibition of angiotensin converting enzyme (ACE)
1,"CC(C)[C@H](N)C(=O)N1CCC[C@H]1C(=O)N1CCC[C@H]1C(=O)O [VPP, valyl-prolyl-proline]",inhibit
2,"CC[C@H](C)[C@H](N)C(=O)N1CCC[C@H]1C(=O)N1CCC[C@H]1C(=O)O [IPP, isoleucyl-prolyl-proline]",inhibit
